The values that follow come from patent US20220287970A1, “COMPOSITION FOR INHIBITING SAPONIN-INDUCED HEMOLYSIS, CONTAINING CATIONIC LIPOSOME” (priority 2020, published 2022).

Series [1] has as its system red blood cells (RBCs). Description: Hemolysis analysis: steroidal and triterpenoid saponins (Example 5). Format: cell-based. The following applies: saponin alone. The method, then: 1) The liposome, saponin, sucrose in a HEPES buffer (pH 7.4), and distilled water were placed in a 96-well plate, as shown in Tables 14 and 15 below.
2) The reaction was carried out at room temperature and 300 rpm for 30 minutes using an orbital shaker.
3) 3 mL of RBCs were suspended in 10 mL of PBS and centrifuged at room temperature and 1500 rpm for 5 minutes, after which the supernatant was removed.
4) Steps 2) and 3) were repeated three times, and thus the RBCs were washed.
5) The RBC pellet was suspended in 1 mL of PBS and diluted to 1/100, followed by cell counting.
6) The RBCs were diluted to 1.5×10^9 cells/mL using PBS and dispensed at 3×10^7 cells/20 μL/well in a 96-well plate treated with the test material of 2) above.
7) The reaction was carried out at room temperature and 300 rpm for 1 hour using an orbital shaker.
8) The 96-well plate was centrifuged at room temperature and 1500 rpm for 5 minutes.
9) 50 μL of the supernatant was transferred to a new 96-well plate, and the absorbance was then measured at 415 nm.
10) Hemolysis (%) was calculated using the following equation.
(§1) Hemolysis (%)=(OD of sample OD of 0% hemolysis)/(0D of 100% hemolysis−OD of 0% hemolysis)×100

The subject of series [2] is red blood cells (RBCs). Description: Hemolysis analysis: cationic liposome screening vs crude saponin and QS21 (Example 3). Format: cell-based. Particulars: saponin alone. As for the experimental part:
1) After freeze-drying, the liposome stored in the glass vial was hydrated with 225 μL of distilled water and then allowed to react at 60° C. for 10 minutes to thus completely dissolve the liposome.
2) The liposome, saponin, sucrose in a HEPES buffer (pH 7.4), and distilled water were placed in a 96-well plate, as shown in Tables 8 and 9 below.
3) The reaction was carried out at room temperature and 300 rpm for 30 minutes using an orbital shaker.
4) 3 mL of RBCs were suspended in 10 mL of PBS and centrifuged at room temperature and 1500 rpm for 5 minutes, after which the supernatant was removed.
5) Steps 3) and 4) were repeated three times, and thus the RBCs were washed.
6) The RBC pellet was suspended in 1 mL of PBS and diluted to 1/100, followed by cell counting.
7) The RBCs were diluted to 1.5×10^9 cells/mL using PBS and dispensed at 3×10^7 cells/20 μL/well in a 96-well plate treated with the test material of 2) above.
8) The reaction was carried out at room temperature and 300 rpm for 1 hour using an orbital shaker.
9) The 96-well plate was centrifuged at room temperature and 1500 rpm for 5 minutes.
10) 50 μL of the supernatant was transferred to a new 96-well plate, and the absorbance was then measured at 415 nm.
11) Hemolysis (%) was calculated using the following equation.
as §1

Consider `C[C@@H]1CC[C@@]2(OC1)O[C@H]1[C@@H](O)[C@H]3[C@@H]4CC[C@H]5C[C@@H](O[C@@H]6O[C@H](CO)[C@H](O[C@@H]7O[C@H](CO)[C@@H](O)[C@H](O[C@@H]8OC[C@@H](O)[C@H](O)[C@H]8O)[C@H]7O[C@@H]7O[C@H](CO)[C@H](O)[C@H](O[C@@H]8O[C@H](CO)[C@@H](O)[C@H](O)[C@H]8O)[C@H]7O)[C@H](O)[C@H]6O)[C@H](O)C[C@]5(C)[C@H]4CC[C@]3(C)[C@H]1[C@@H]2C` [digitonin], for which, in the series on red blood cells (RBCs) [1], the “amount of saponin at which 60% hemolysis was observed” value worked out at 2.5 µg and the “amount of saponin at which 100% hemolysis was observed” value worked out at 10 µg.

As for `C[C@@H]1O[C@@H](O[C@H]2[C@H](O[C@H]3CC[C@@]4(C)[C@@H](CC[C@]5(C)[C@@H]4CC=C4[C@@H]6CC(C)(C)CC[C@]6(C(=O)O)CC[C@]45C)[C@]3(C)CO)OC[C@H](O)[C@@H]2O)[C@H](O)[C@H](O)[C@H]1O` [α-hederin], in the series with red blood cells (RBCs) [1], the “amount of saponin at which 60% hemolysis was observed” value was 1.25 µg and the “amount of saponin at which 100% hemolysis was observed” value was 10 µg.

For `C[C@@H]1CC[C@@]2(OC1)O[C@H]1C[C@H]3[C@@H]4CC=C5C[C@@H](O[C@@H]6O[C@H](CO)[C@@H](O[C@@H]7O[C@@H](C)[C@H](O[C@@H]8O[C@@H](C)[C@H](O)[C@@H](O)[C@H]8O)[C@@H](O)[C@H]7O)[C@H](O)[C@H]6O[C@@H]6O[C@@H](C)[C@H](O)[C@@H](O)[C@H]6O)CC[C@]5(C)[C@H]4CC[C@]3(C)[C@@]1(O)[C@@H]2C` [Paris VII], in the series with red blood cells (RBCs) [1], the “amount of saponin at which 60% hemolysis was observed” value turned out to be 1.25 µg and the “amount of saponin at which 100% hemolysis was observed” value was found to be 5 µg.

Take QS21: the “amount of saponin at which 100% hemolysis was observed” value in the series with red blood cells (RBCs) [2] was determined as 2.5 µg.
